Earlier results on one compound are cited in patent US20060040003A1, “Dietary supplement for supressing appetite, enhancing and extending satiety, improving glycemic control, and stimulant free” (priority 2004, published 2006).

For the data set, the target named is T1, plasma albumin (Homo sapiens, UniProt P02768).
T1 construct: host or cells: blood plasma (circulation)

Each structure is given as a SMILES string.

T1 sequence (P02768 25-609): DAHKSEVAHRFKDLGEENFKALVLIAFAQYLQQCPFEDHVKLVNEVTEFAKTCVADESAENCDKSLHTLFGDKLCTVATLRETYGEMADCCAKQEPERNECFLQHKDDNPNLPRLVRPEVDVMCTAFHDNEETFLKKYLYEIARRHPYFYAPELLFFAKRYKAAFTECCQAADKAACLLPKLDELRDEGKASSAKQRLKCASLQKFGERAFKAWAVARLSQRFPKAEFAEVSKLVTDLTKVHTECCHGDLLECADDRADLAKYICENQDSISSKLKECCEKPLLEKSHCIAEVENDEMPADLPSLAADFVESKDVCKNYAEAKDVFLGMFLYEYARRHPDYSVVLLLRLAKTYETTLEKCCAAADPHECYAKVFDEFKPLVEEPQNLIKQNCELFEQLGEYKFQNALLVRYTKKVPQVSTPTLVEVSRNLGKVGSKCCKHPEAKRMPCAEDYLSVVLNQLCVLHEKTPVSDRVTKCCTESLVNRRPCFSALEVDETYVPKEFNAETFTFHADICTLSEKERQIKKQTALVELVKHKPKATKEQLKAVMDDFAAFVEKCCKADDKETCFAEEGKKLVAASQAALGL

Consider `N[C@@H](Cc1c[nH]c2ccccc12)C(=O)O` [tryptophane], for which the “circulating in the blood as free tryptophane” value is 20%.
